Measurements as given in patent US12459951B2, “Compounds that interact with RAS superfamily proteins for treatment of cancers, inflammatory diseases, rasopathies, and fibrotic disease” (SHY Therapeutics, LLC, priority 2022, dated 2025).

Columns and labels:
Erk1/2 phosphorylation = experiment: Erk1/2 Phosphorylation Assay (western blot), Panc-1; assay type: cell-based, human; settings: at 10 μM, * = activation
Summary of the method: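 Phospho-Erk1/2 (Thr202/Tyr204) was detected by western blot in lysates of Panc-1 cells (KRas G12D). These had 6 h, 37° C exposure to 10 μM compound or a dilution series for IC50, in 0.3% DMSO. Cells were either starved overnight in 0.5% FBS with a 15-min 1.5 ng/ml EGF pulse, or kept unstimulated in 10% FBS.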

KRas wild type = experiment: Ras GTP Binding Domain Inhibition Assay (Ras Superfamily Assay); settings: at 20 μM; for KRas wild type + SOS: % inh.: with SOS; for KRas wild type: % inh.: without SOS
Summary of the method: (§1)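 His-tagged GTPases immobilised on nickel-coated plates, pre-incubated with compound (20 μM single point, or serial dilution for IC50) 3 h at room temperature, with or without 10-30 μg/mL Sos (residues 556-1049) in the final hour. Bound Cy3- or Cy5-GTP (100 nM, 45 min) measured by fluorescence after washing.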

KRas G12D mutant = experiment: as above; settings: at 20 μM; for KRas G12D mutant + SOS: % inh.: with SOS; for KRas G12D mutant: % inh.: without SOS
Summary of the method: as §1

Rac-1 = molecular target: T1, Rac-1 (Homo sapiens, UniProt P63000); experiment: as above; settings: read-out: Rac-1: % inh.
T1 construct: made in house
Summary of the method: as §1

Row | Structure (SMILES) | % inh of Erk1/2 phosphorylation in Panc-1 (Erk1/2 phosphorylation) | KRas wild type + SOS: % inh. (KRas wild type) | KRas wild type: % inh. (KRas wild type) | KRas G12D mutant + SOS: % inh. (KRas G12D mutant) | KRas G12D mutant: % inh. (KRas G12D mutant) | inhibition at 20 µM (Rac-1)
1 | CO[C@H]1C[C@H](Nc2nc(-c3nccn3C)nn3cc(-c4ccn(C)n4)c(C4CC4)c23)C1 [Compound 275, 5-Cyclopropyl-N-((1r,3r)-3-methoxycyclobutyl)-2-(1-methyl-1H-imidazol-2-yl)-6-(1-methyl-1H-pyrazol-3-yl)pyrrolo[2,1-f][1,2,4]triazin-4-amine] | 0 (0% inhibition) | 0 (0 = 0% inhibition) | A (A = 1-25% inhibition) | A (A = 1-25% inhibition) | A (A = 1-25% inhibition) | 1 to 25%
2 | CCOc1cc(Nc2nc(-c3nccn3C)nn3cc(-c4ccn(C)n4)c(C)c23)n[nH]1 [Compound 260, N-(5-Ethoxy-1H-pyrazol-3-yl)-5-methyl-2-(1-methyl-1H-imidazol-2-yl)-6-(1-methyl-1H-pyrazol-3-yl)pyrrolo[2,1-f][1,2,4]triazin-4-amine] | A* (1-25% activation) | D (D = 76-100% inhibition) | D (D = 76-100% inhibition) | C (C = 50-75% inhibition) | C (C = 50-75% inhibition) | 50 to 75%
3 | COc1ccc(F)c(-c2cn3nc(-c4nccn4C)nc(N[C@H]4C[C@H](OC)C4)c3c2-c2ccccc2)c1F [Compound 273, 6-(2,6-Difluoro-3-methoxyphenyl)-N-((1r,3r)-3-methoxycyclobutyl)-2-(1-methyl-1H-imidazol-2-yl)-5-phenylpyrrolo[2,1-f][1,2,4]triazin-4-amine] | D (85-100% inhibition) | A (A = 1-25% inhibition) | 0 (0 = 0% inhibition) | A (A = 1-25% inhibition) | B (B = 26-49% inhibition) | 1 to 25%
4 | COc1cccc(-c2cn3nc(-c4nccn4C)nc(N[C@H]4C[C@@H](OC)C4)c3c2-c2ccccc2)c1C [Compound 269, 6-(3-Methoxy-2-methylphenyl)-N-((1s,3s)-3-methoxycyclobutyl)-2-(1-methyl-1H-imidazol-2-yl)-5-phenylpyrrolo[2,1-f][1,2,4]triazin-4-amine] | D (85-100% inhibition) | A (A = 1-25% inhibition) | C (C = 50-75% inhibition) | B (B = 26-49% inhibition) | B (B = 26-49% inhibition) | 26 to 49%
5 | Cc1c(-c2ccn(C)n2)cn2nc(-c3nccn3C)nc(Nc3cc(-c4ccccn4)ccn3)c12 [Compound 248, N-([2,4′-Bipyridin]-2′-yl)-5-methyl-2-(1-methyl-1H-imidazol-2-yl)-6-(1-methyl-1H-pyrazol-3-yl)pyrrolo[2,1-f][1,2,4]triazin-4-amine] | C* (46-84% activation) | D (D = 76-100% inhibition) | D (D = 76-100% inhibition) | D (D = 76-100% inhibition) | D (D = 76-100% inhibition) | 76 to 100%
6 | COc1ccnc(Nc2nc(-c3nccn3C)nn3cc(-c4ccn(C)n4)c(C4CC4)c23)c1 [Compound 276, 5-Cyclopropyl-N-(4-methoxypyridin-2-yl)-2-(1-methyl-1H-imidazol-2-yl)-6-(1-methyl-1H-pyrazol-3-yl)pyrrolo[2,1-f][1,2,4]triazin-4-amine] | D* (85-100% activation) | D (D = 76-100% inhibition) | D (D = 76-100% inhibition) | D (D = 76-100% inhibition) | D (D = 76-100% inhibition) | 76 to 100%
7 | Cc1c(-c2ccn(C)n2)cn2nc(-c3nccn3C)nc(Nc3cc(-c4cccnc4)ccn3)c12 [Compound 250, N-([3,4′-Bipyridin]-2′-yl)-5-methyl-2-(1-methyl-1H-imidazol-2-yl)-6-(1-methyl-1H-pyrazol-3-yl)pyrrolo[2,1-f][1,2,4]triazin-4-amine] | C* (46-84% activation) | D (D = 76-100% inhibition) | D (D = 76-100% inhibition) | D (D = 76-100% inhibition) | D (D = 76-100% inhibition) | 76 to 100%
8 | Cc1c(-c2ccn(C)n2)cn2nc(-c3nccn3C)nc(Nc3cc(C(F)F)[nH]n3)c12 [Compound 258, N-(5-(Difluoromethyl)-1H-pyrazol-3-yl)-5-methyl-2-(1-methyl-1H-imidazol-2-yl)-6-(1-methyl-1H-pyrazol-3-yl)pyrrolo[2,1-f][1,2,4]triazin-4-amine] | A* (1-25% activation) | 0 (0 = 0% inhibition) | A (A = 1-25% inhibition) | 0 (0 = 0% inhibition) | 0 (0 = 0% inhibition) | 0%
9 | Cc1c(-c2ccn(C)n2)cn2nc(-c3nccn3C)nc(Nc3cc(C4CCC4)[nH]n3)c12 [Compound 257, N-(5-Cyclobutyl-1H-pyrazol-3-yl)-5-methyl-2-(1-methyl-1H-imidazol-2-yl)-6-(1-methyl-1H-pyrazol-3-yl)pyrrolo[2,1-f][1,2,4]triazin-4-amine] | C* (46-84% activation) | D (D = 76-100% inhibition) | C (C = 50-75% inhibition) | D (D = 76-100% inhibition) | D (D = 76-100% inhibition) | 50 to 75%
10 | Cc1c(-c2ccn(C)n2)cn2nc(-c3nccn3C)nc(Nc3cc[nH]n3)c12 [Compound 256, 5-Methyl-2-(1-methyl-1H-imidazol-2-yl)-6-(1-methyl-1H-pyrazol-3-yl)-N-(1H-pyrazol-3-yl)pyrrolo[2,1-f][1,2,4]triazin-4-amine] | C (50-84% inhibition) | D (D = 76-100% inhibition) | A (A = 1-25% inhibition) | D (D = 76-100% inhibition) | D (D = 76-100% inhibition) | 76 to 100%
